According to patent US20140120087A1, “TRIAZOLOPYRIDINES” (BAYER INTELLECTUAL PROPERTY GMBH, priority 2011, published 2014):

Key:
Mps-1 kinase [1] = biological target: T1, Mps-1 kinase (Homo sapiens, UniProt P33981); assay: Mps-1 kinase assay with 2 mM ATP (TR-FRET)
T1 sequence (P33981 1-857): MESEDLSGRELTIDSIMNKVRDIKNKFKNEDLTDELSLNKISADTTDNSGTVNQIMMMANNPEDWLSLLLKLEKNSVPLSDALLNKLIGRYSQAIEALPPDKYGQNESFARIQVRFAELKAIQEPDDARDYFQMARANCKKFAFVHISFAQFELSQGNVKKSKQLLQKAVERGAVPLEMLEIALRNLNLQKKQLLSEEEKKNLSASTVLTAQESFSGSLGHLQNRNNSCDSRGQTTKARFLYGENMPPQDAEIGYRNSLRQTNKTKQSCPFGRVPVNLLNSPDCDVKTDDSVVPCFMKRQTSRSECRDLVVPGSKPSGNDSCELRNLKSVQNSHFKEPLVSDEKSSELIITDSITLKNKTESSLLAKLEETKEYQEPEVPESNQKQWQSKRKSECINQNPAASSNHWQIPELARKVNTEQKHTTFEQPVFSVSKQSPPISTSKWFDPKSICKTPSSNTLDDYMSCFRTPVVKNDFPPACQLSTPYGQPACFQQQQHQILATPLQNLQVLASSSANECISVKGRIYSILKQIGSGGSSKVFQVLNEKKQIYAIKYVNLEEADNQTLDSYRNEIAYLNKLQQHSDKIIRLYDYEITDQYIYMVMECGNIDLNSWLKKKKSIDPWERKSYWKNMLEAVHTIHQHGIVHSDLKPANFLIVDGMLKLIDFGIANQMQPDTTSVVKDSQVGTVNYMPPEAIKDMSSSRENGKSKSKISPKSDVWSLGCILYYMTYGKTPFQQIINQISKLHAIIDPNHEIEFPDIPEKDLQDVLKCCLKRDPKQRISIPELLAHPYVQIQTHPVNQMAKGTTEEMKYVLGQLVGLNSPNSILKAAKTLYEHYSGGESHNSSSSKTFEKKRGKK

Mps-1 kinase [2] = biological target: T1, Mps-1 kinase; assay: Mps-1 kinase assay with 10 μM ATP (TR-FRET)

Work on `COc1cc(C(=O)NCC(F)(F)F)ccc1Nc1nc2ccc(-c3ccc(NC(=O)Cc4ccc(F)cc4)cc3)cn2n1` [Example 01.31, 4-{[6-(4-{[(4-fluorophenyl)acetyl]amino}phenyl)[1,2,4]triazolo[1,5-α]-pyridin-2-yl]amino}-3-methoxy-N-(2,2,2-trifluoroethyl)benzamide] yielded an IC50 (Mps-1 kinase [1]) of 5 nM and an IC50 (Mps-1 kinase [2]) of no more than 1 nM.

With `CCOc1cc(S(C)(=O)=O)ccc1Nc1nc2ccc(-c3ccc(NC(=O)Cc4ccc(F)cc4)cc3)cn2n1` [Example 01.32, N-[4-(2-{[2-ethoxy-4-(methylsulfonyl)phenyl]amino}[1,2,4]triazolo[1,5-α]-pyridin-6-yl)phenyl]-2-(4-fluorophenyl)acetamide] the IC50 (Mps-1 kinase [1]) was no more than 1 nM and the IC50 (Mps-1 kinase [2]) was no more than 1 nM.

With `CCOc1cc(S(=O)(=O)CC)ccc1Nc1nc2ccc(-c3ccc(NC(=O)Cc4ccc(F)cc4)cc3)cn2n1` [Example 01.33, N-[4-(2-{[2-ethoxy-4-(ethylsulfonyl)phenyl]amino}[1,2,4]triazolo[1,5-α]-pyridin-6-yl)phenyl]-2-(4-fluorophenyl)acetamide] the IC50 (Mps-1 kinase [1]) was 1.3 nM and the IC50 (Mps-1 kinase [2]) was no more than 1 nM.

Work on `CS(=O)(=O)c1ccc(Nc2nc3ccc(-c4ccc(NC(=O)Cc5ccc(F)cc5)cc4)cn3n2)c(OCC(F)(F)F)c1` [Example 01.34, 2-(4-fluorophenyl)-N-[4-(2-{[4-(methylsulfonyl)-2-(2,2,2-trifluoroethoxy)-phenyl]amino}[1,2,4]triazolo[1,5-α]pyridin-6-yl)phenyl]acetamide] yielded an IC50 (Mps-1 kinase [1]) of no more than 1 nM and an IC50 (Mps-1 kinase [2]) of no more than 1 nM.

Work on `CS(=O)(=O)c1ccc(Nc2nc3ccc(-c4ccc(NC(=O)Cc5ccc(F)cc5)cc4)cn3n2)c(OC(F)F)c1` [Example 01.35, N-[4-(2-{[2-(difluoromethoxy)-4-(methylsulfonyl)phenyl]amino}[1,2,4]-triazolo[1,5-α]pyridin-6-yl)phenyl]-2-(4-fluorophenyl)acetamide] yielded an IC50 (Mps-1 kinase [1]) of 1.2 nM and an IC50 (Mps-1 kinase [2]) of no more than 1 nM.

`CCS(=O)(=O)c1ccc(Nc2nc3ccc(-c4ccc(NC(=O)Cc5ccc(F)cc5)cc4)cn3n2)c(OC(F)F)c1` [Example 01.36, N-[4-(2-{[2-(difluoromethoxy)-4-(ethylsulfonyl)phenyl]amino}[1,2,4]-triazolo[1,5-α]pyridin-6-yl)phenyl]-2-(4-fluorophenyl)acetamide] was tested, and the IC50 (Mps-1 kinase [1]) was no more than 1 nM and the IC50 (Mps-1 kinase [2]) was no more than 1 nM.

`CS(=O)(=O)c1ccc(Nc2nc3ccc(-c4ccc(NC(=O)Cc5ccc(F)cc5)cc4)cn3n2)c(OC2CC2)c1` [Example 01.37, N-[4-(2-{[2-(cyclopropyloxy)-4-(methylsulfonyl)phenyl]amino}[1,2,4]-triazolo[1,5-α]pyridin-6-yl)phenyl]-2-(4-fluorophenyl)acetamide] gave an IC50 (Mps-1 kinase [1]) of 1.6 nM and an IC50 (Mps-1 kinase [2]) of no more than 1 nM.

`CCOc1cc(S(C)(=O)=O)ccc1Nc1nc2ccc(-c3ccc(C(=O)NCc4ccc(F)cc4)cc3)cn2n1` [Example 02.25, 4-(2-{[2-ethoxy-4-(methylsulfonyl)phenyl]amino}[1,2,4]triazolo[1,5-α]-pyridin-6-yl)-N-(4-fluorobenzyl)benzamide] was tested, and the IC50 (Mps-1 kinase [1]) was 3.3 nM and the IC50 (Mps-1 kinase [2]) was no more than 1 nM.

Work on `CCOc1cc(S(=O)(=O)CC)ccc1Nc1nc2ccc(-c3ccc(C(=O)NCc4ccc(F)cc4)cc3)cn2n1` [Example 02.26, 4-(2-{[2-ethoxy-4-(ethylsulfonyl)phenyl]amino}[1,2,4]triazolo[1,5-α]-pyridin-6-yl)-N-(4-fluorobenzyl)benzamide] yielded an IC50 (Mps-1 kinase [1]) of 6.1 nM and an IC50 (Mps-1 kinase [2]) of no more than 1 nM.

For `CS(=O)(=O)c1ccc(Nc2nc3ccc(-c4ccc(C(=O)NCc5ccc(F)cc5)cc4)cn3n2)c(OCC(F)(F)F)c1` [Example 02.27, N-(4-fluorobenzyl)-4-(2-{[4-(methylsulfonyl)-2-(2,2,2-trifluoroethoxy)-phenyl]amino}[1,2,4]triazolo[1,5-α]pyridin-6-yl)benzamide], the IC50 (Mps-1 kinase [1]) was no more than 1 nM and the IC50 (Mps-1 kinase [2]) was no more than 1 nM.

`CS(=O)(=O)c1ccc(Nc2nc3ccc(-c4ccc(C(=O)NCc5ccc(F)cc5)cc4)cn3n2)c(OC(F)F)c1` [Example 02.28, 4-(2-{[2-(difluoromethoxy)-4-(methylsulfonyl)phenyl]amino}[1,2,4]triazolo-[1,5-α]pyridin-6-yl)-N-(4-fluorobenzyl)benzamide] gave an IC50 (Mps-1 kinase [1]) of 3.5 nM and an IC50 (Mps-1 kinase [2]) of no more than 1 nM.

`CS(=O)(=O)c1ccc(Nc2nc3ccc(-c4ccc(C(=O)NCc5ccc(F)cc5)cc4)cn3n2)c(OC2CC2)c1` [Example 02.29, 4-(2-{[2-(cyclopropyloxy)-4-(methylsulfonyl)phenyl]amino}[1,2,4]triazolo-[1,5-α]pyridin-6-yl)-N-(4-fluorobenzyl)benzamide] was tested, and the IC50 (Mps-1 kinase [1]) was 7.5 nM and the IC50 (Mps-1 kinase [2]) was no more than 1 nM.

In the case of `Cc1cc(-c2ccc3nc(Nc4ccc(S(C)(=O)=O)cc4OCC(F)(F)F)nn3c2)ccc1C(=O)NCc1ccc(F)cc1` [Example 04.2, N-(4-fluorobenzyl)-2-methyl-4-(2-{[4-(methylsulfonyl)-2-(2,2,2-trifluoro-ethoxy)phenyl]amino}[1,2,4]triazolo[, 5-α]pyridin-6-yl)benzamide], the IC50 (Mps-1 kinase [1]) is reported as 15 nM and the IC50 (Mps-1 kinase [2]) is reported as no more than 1 nM.

For `COc1cc(S(C)(=O)=O)ccc1Nc1nc2ccc(-c3ccc(C(=O)NCc4ccc(F)cc4)c(OC)c3)cn2n1` [Example 09.1, N-(4-fluorobenzyl)-2-methoxy-4-(2-{[2-methoxy-4-(methylsulfonyl)phenyl]-amino}[1,2,4]triazolo[1,5-α]pyridin-6-yl)benzamide], the IC50 (Mps-1 kinase [1]) was 19 nM and the IC50 (Mps-1 kinase [2]) was no more than 1 nM.

Work on `COc1cc(S(C)(=O)=O)ccc1Nc1nc2ccc(-c3ccc(NC(=O)Cc4ccc(F)cc4F)cc3)cn2n1` [Example 10.01] yielded an IC50 (Mps-1 kinase [1]) of 17 nM and an IC50 (Mps-1 kinase [2]) of no more than 1 nM.

`COc1cc(S(C)(=O)=O)ccc1Nc1nc2ccc(-c3ccc(C(=O)NCc4ccc(F)cc4F)cc3)cn2n1` [Example 11.01, N-(2,4-difluorobenzyl)-4-(2-{[2-methoxy-4-(methylsulfonyl)phenyl]amino}-[1,2,4]triazolo[1,5-α]pyridin-6-yl)benzamide] gave an IC50 (Mps-1 kinase [1]) of 11 nM and an IC50 (Mps-1 kinase [2]) of no more than 1 nM.

In the case of `COCCNC(=O)c1ccc(Nc2nc3ccc(-c4ccc(NC(=O)Cc5ccc(F)cc5)cc4)cn3n2)c(OC)c1` [Example 12.01, 4-{[6-(4-{[(4-fluorophenyl)-acetyl]amino}phenyl)[1,2,4]triazolo[1,5-a]pyridin-2-yl]amino}-3-methoxy-N-(2-methoxyethyl)benzamide], the IC50 (Mps-1 kinase [1]) is reported as no more than 1 nM and the IC50 (Mps-1 kinase [2]) is reported as no more than 1 nM.

In the case of `COc1cc(C(=O)NCCS(C)(=O)=O)ccc1Nc1nc2ccc(-c3ccc(NC(=O)Cc4ccc(F)cc4)cc3)cn2n1` [Example 12.03], the IC50 (Mps-1 kinase [1]) is reported as no more than 1 nM and the IC50 (Mps-1 kinase [2]) is reported as no more than 1 nM.

For `COc1cc(C(=O)NCCF)ccc1Nc1nc2ccc(-c3ccc(NC(=O)Cc4ccc(F)cc4)cc3)cn2n1` [Example 12.05, N-(2-fluoroethyl)-4-{[6-(4-{[(4-fluorophenyl)acetyl]-amino}phenyl)[1,2,4]-triazolo[1,5-a]pyridin-2-yl]amino}-3-methoxy-benzamide], the IC50 (Mps-1 kinase [1]) was no more than 1 nM and the IC50 (Mps-1 kinase [2]) was no more than 1 nM.

With `CCN(C)C(=O)c1ccc(Nc2nc3ccc(-c4ccc(NC(=O)Cc5ccc(F)cc5)cc4)cn3n2)c(OC)c1` [Example 12.06, N-ethyl-4-{[6-(4-{[(4-fluorophenyl)acetyl]amino}-phenyl)[1,2,4]triazolo[1,5-a]pyridin-2-yl]amino}-3-methoxy-N-methyl-benzamide] the IC50 (Mps-1 kinase [1]) was no more than 1 nM and the IC50 (Mps-1 kinase [2]) was no more than 1 nM.

For `COc1cc(C(=O)NCC(F)F)ccc1Nc1nc2ccc(-c3ccc(NC(=O)Cc4ccc(F)cc4)cc3)cn2n1` [Example 12.07, N-(2,2-difluoroethyl)-4-{[6-(4-{[(4-fluorophenyl)-acetyl]amino}phenyl)[1,2,4]triazolo[1,5-a]pyridin-2-yl]amino}-3-methoxy-benzamide], the IC50 (Mps-1 kinase [1]) was no more than 1 nM and the IC50 (Mps-1 kinase [2]) was no more than 1 nM.

`COc1cc(C(=O)N(C)CCN(C)C)ccc1Nc1nc2ccc(-c3ccc(NC(=O)Cc4ccc(F)cc4)cc3)cn2n1` [Example 12.08, N-[2-(dimethylamino)ethyl]-4-{[6-(4-{[(4-fluorophenyl)-acetyl]amino}phenyl)[1,2,4]triazolo[1,5-a]pyridin-2-yl]amino}-3-methoxy-N-methylbenzamide] was tested, and the IC50 (Mps-1 kinase [1]) was no more than 1 nM and the IC50 (Mps-1 kinase [2]) was no more than 1 nM.

For `COc1cc(C(=O)N(C)CC(F)(F)F)ccc1Nc1nc2ccc(-c3ccc(NC(=O)Cc4ccc(F)cc4)cc3)cn2n1` [Example 12.09, 4-{[6-(4-{[(4-fluorophenyl)-acetyl]amino}phenyl)[1,2,4]triazolo[1,5-a]pyridin-2-yl]amino}-3-methoxy-N-methyl-N-(2,2,2-trifluoro-ethyl)benzamide], the IC50 (Mps-1 kinase [1]) was 2.5 nM and the IC50 (Mps-1 kinase [2]) was no more than 1 nM.

Molecule `COc1cc(C(=O)NCCN(C)C)ccc1Nc1nc2ccc(-c3ccc(NC(=O)Cc4ccc(F)cc4)cc3)cn2n1` [Example 12.10, N-[2-(dimethylamino)ethyl]-4-{[6-(4-{[(4-fluorophenyl)-acetyl]amino}phenyl)[1,2,4]triazolo[1,5-a]pyridin-2-yl]amino}-3-methoxy-benzamide] has an IC50 (Mps-1 kinase [1]) of no more than 1 nM and an IC50 (Mps-1 kinase [2]) of no more than 1 nM.
